Results as given in patent US10350210B2, “EGFR and ALK dual inhibitor” (PRECEDO PHARMACEUTICALS CO., LTD, priority 2015, dated 2019).

What was measured:
Format in all cases: cell-based
[1] = tested on: NCI-H1975; assay: Growth of cancer cells (Cell Titer-Glo viability), NCI-H1975; conditions: Homo sapiens; NCI-H1975 (EGFR L858R/T790M double mutant), 72 hrs
Outline: (§1)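 Cells are counted as viable by CellTiter-Glo chemiluminescence. Murine BaF3 lines depend on a stably transfected TEL-fused kinase after IL-3 withdrawal, and the NSCLC lines express mutant EGFR.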

[2] = tested on: PC-9; assay: Growth of cancer cells (Cell Titer-Glo viability), PC-9; conditions: Homo sapiens; PC-9 (EGFR delE746_A750 mutant), 72 hrs
Outline: as §1

[3] = tested on: NCI-H3122; assay: Growth of cancer cells (Cell Titer-Glo viability), NCI-H3122; conditions: Homo sapiens; NCI-H3122 (expressing ALK gene), 72 hrs; read-out: GI50
[4] = tested on: BaF3; assay: Cell growth (Cell Titer-Glo viability), BaF3; conditions: BaF3 mouse primary B cell, 72 hrs
[5] = tested on: BaF3-TEL-ALK; assay: Cell growth (Cell Titer-Glo viability), BaF3-TEL-ALK; conditions: Mus musculus; BaF3-TEL-ALK (stably expressing ALK kinase), 72 hrs
Outline: (§2)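 Mouse BaF3 cells retrovirally transduced with human kinase fused to N-terminal TEL fragment, then IL-3 withdrawn so proliferation depends on the transgene. HCC827 carries EGFR del19 and NCI-H3255 EGFR L858R. Viable cells were quantified by CellTiter-Glo chemiluminescence on a microplate reader.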

[6] = tested on: BaF3-NPM-ALK; assay: Cell growth (Cell Titer-Glo viability), BaF3-NPM-ALK; conditions: Mus musculus; BaF3-NPM-ALK (stably expressing ALK kinase), 72 hrs
[7] = tested on: BaF3-TEL-INSR; assay: Cell growth (Cell Titer-Glo viability), BaF3-TEL-INSR; conditions: Mus musculus; BaF3-TEL-INSR (stably expressing INSR protein), 72 hrs
Source text: (§3) By testing the effect of the novel kinase inhibitors on the proliferation of cancer cells, the selectivity of the compounds of the present disclosure in inhibiting the proliferation of cancer cells was further assessed. In this example, human non-small cell lung cancer cell NCI-H1975 (expressing EGFR L858R/T790M double mutant gene), human skin squamous carcinoma cell A431 (expressing wild-type EGFR gene), non-small cell lung cancer NCI-H3255 (expressing EGFR L858R mutant gene), non-small cell lung cancer cell NCI-H3122 (expressing ALK gene), human non-small cell lung cancer cell A549 (expressing wild-type EGFR gene), human non-small cell lung cancer cell NCI-H2122 (expressing wild-type EGFR gene), human non-small cell lung cancer cell NCI-H460 (expressing wild-type EGFR gene), human non-small cell lung cancer cell PC-9 (expressing EGFR delE746_A750 mutant gene), Chinese hamster ovary cell CHO (Cricetulus griseus, hamster, Chinese, ovary), Chinese hamster lung cell CHL, human non-small cell lung cancer cell HCC827 (expressing mutant EGFR del19 gene), human lung adenocarcinoma cell HCC4006 (expressing mutant EGFR del19 gene), human non-small cell lung cancer cell NCI-H2228 (expressing wild-type ALK gene), and mouse primary B cell BaF3 were used, and the above cells were all purchased from ATCC (US). In addition, mouse BaF3-TEL-ALK (stably expressing ALK kinase), mouse BaF3-ALK-F1174L (stably expressing mutant ALK F1174L kinase), mouse BaF3-NPM-ALK (stably expressing ALK kinase), mouse BaF3-TEL-EGFR (stably expressing EGFR kinase), mouse BaF3-TEL-EGFR-T790M (stably expressing EGFR T790M mutant kinase), mouse BaF3-FL-EGFR-Del19 (stably expressing EGFR delE746_A750 mutant kinase), mouse BaF3-TEL-EGFR-L858R (stably expressing EGFR L858R mutant kinase), mouse BaF3-FL-EGFR-T790M-L858R (stably expressing EGFR T790M/L858R mutant kinase), mouse BaF3-TEL-INSR (stably expressing INSR protein), mouse BaF3-TEL-IGF1R (stably expressing IGF1R Protein), mouse BaF3-EML4-ALK (stably expressing EML4-ALK Protein), mouse BaF3-TEL-JAK3 (stably expressing JAK3 kinase protein), mouse BaF3-TEL-CSF1R (stably expressing CSF1R protein), and mouse BaF3-TEL-ALK-F1196M (stably expressing ALK F1196M mutant kinase) were also used in this example. The above cell lines were all established by our laboratory via the following process: kinase proteins or protein domain sequences of human ALK, ALK F1174L, EGFR, EGFR T790M, EGFR delE746_A750, EGFR L858, EGFR T790M/L858R, INSR, IGF1R, EML4-ALK, JAK3, CSF1R, ALK F1196M were amplified respectively by PCR, and were respectively inserted into MSCV-Puro vector (Clontech) with N-terminal TEL fragments and/or NPM fragments and/or TPR fragments; the resultants were stably transfected into mouse BaF3 cells by the means of retrovirus, and the IL-3 growth factors were removed, and eventually the ALK, ALK F1174L, EGFR, EGFR T790M, EGFR delE746_A750, EGFR L858, EGFR T790M/L858R, INSR, IGF1R, EML4-ALK, JAK3, CSF1R, ALK F1196M-transferred protein dependent cell lines were obtained.
(§4) The number of viable cells was determined quantitatively by a microplate reader using Cell Titer-Glo® (Promega, US) chemiluminescence cell viability assay kit.

[8] = tested on: BaF3-TEL-ALK-F1196M; assay: Cell growth (Cell Titer-Glo viability), BaF3-TEL-ALK-F1196M; conditions: Mus musculus; BaF3-TEL-ALK-F1196M (ALK F1196M mutant kinase), 72 hrs
Source text: (§5) By testing the effect of the novel kinase inhibitors on the proliferation of cancer cells, the selectivity of the compounds of the present disclosure in inhibiting the proliferation of cancer cells was further assessed. In this example, human non-small cell lung cancer cell NCI-H1975 (expressing EGFR L858R/T790M double mutant gene), human skin squamous carcinoma cell A431 (expressing wild-type EGFR gene), non-small cell lung cancer NCI-H3255 (expressing EGFR L858R mutant gene), non-small cell lung cancer cell NCI-H3122 (expressing ALK gene), human non-small cell lung cancer cell A549 (expressing wild-type EGFR gene), human non-small cell lung cancer cell NCI-H2122 (expressing wild-type EGFR gene), human non-small cell lung cancer cell NCI-H460 (expressing wild-type EGFR gene), human non-small cell lung cancer cell PC-9 (expressing EGFR delE746_A750 mutant gene), Chinese hamster ovary cell CHO (Cricetulus griseus, hamster, Chinese, ovary), Chinese hamster lung cell CHL, human non-small cell lung cancer cell HCC827 (expressing mutant EGFR del19 gene), human lung adenocarcinoma cell HCC4006 (expressing mutant EGFR del19 gene), human non-small cell lung cancer cell NCI-H2228 (expressing wild-type ALK gene), and mouse primary B cell BaF3 were used, and the above cells were all purchased from ATCC (US). […]
as §4

[9] = tested on: A549; assay: Growth of cancer cells (Cell Titer-Glo viability), A549; conditions: Homo sapiens; A549 (wild-type EGFR), 72 hrs
[10] = tested on: HCC827; assay: Growth of cancer cells (Cell Titer-Glo viability), HCC827; conditions: Homo sapiens; HCC827 (mutant EGFR del19), 72 hrs
Outline: as §2

[11] = tested on: BaF3-TEL-EGFR-T790M; assay: Cell growth (Cell Titer-Glo viability), BaF3-TEL-EGFR-T790M; conditions: Mus musculus; BaF3-TEL-EGFR-T790M (EGFR T790M mutant kinase), 72 hrs
Outline: as §2

[12] = tested on: BaF3-TEL-IGF1R; assay: Cell growth (Cell Titer-Glo viability), BaF3-TEL-IGF1R; conditions: Mus musculus; BaF3-TEL-IGF1R (stably expressing IGF1R protein), 72 hrs
Source text: as §5, with “(US). In addition, mouse BaF3-TEL-ALK (stably expressing ALK kinase), mouse BaF3-ALK-F1174L (stably expressing mutant ALK F1174L kinase), mouse BaF3-NPM-ALK (stably expressing ALK kinase), mouse BaF3-TEL-EGFR (stably expressing EGFR kinase), mouse BaF3-TEL-EGFR-T790M (stably expressing EGFR T790M mutant kinase), mouse BaF3-FL-EGFR-Del19 (stably expressing EGFR delE746_A750 mutant kinase), mouse BaF3-TEL-EGFR-L858R (stably expressing EGFR L858R mutant kinase), mouse BaF3-FL-EGFR-T790M-L858R (stably expressing EGFR T790M/L858R mutant kinase), mouse BaF3-TEL-INSR (stably expressing INSR protein), mouse BaF3-TEL-IGF1R (stably expressing IGF1R Protein), mouse BaF3-EML4-ALK (stably expressing EML4-ALK Protein), mouse BaF3-TEL-JAK3 (stably expressing JAK3 kinase protein), mouse BaF3-TEL-CSF1R (stably expressing CSF1R protein), and mouse BaF3-TEL-ALK-F1196M (stably expressing ALK F1196M mutant kinase) were also used in this example.” for “(US).”
as §4

[13] = tested on: BaF3-EML4-ALK; assay: Cell growth (Cell Titer-Glo viability), BaF3-EML4-ALK; conditions: Mus musculus, Ba/F3 EML4-ALK; BaF3-EML4-ALK (stably expressing EML4-ALK protein), 72 hrs
Source text: as §3, §4

[14] = tested on: BaF3-TEL-JAK3; assay: Cell growth (Cell Titer-Glo viability), BaF3-TEL-JAK3; conditions: Mus musculus; BaF3-TEL-JAK3 (stably expressing JAK3 kinase protein), 72 hrs
Source text: as §3, §4

[15] = tested on: BaF3-TEL-CSF1R; assay: Cell growth (Cell Titer-Glo viability), BaF3-TEL-CSF1R; conditions: Mus musculus; BaF3-TEL-CSF1R (stably expressing CSF1R protein), 72 hrs
Source text: as §5, with “(US). In addition, mouse BaF3-TEL-ALK (stably expressing ALK kinase), mouse BaF3-ALK-F1174L (stably expressing mutant ALK F1174L kinase), mouse BaF3-NPM-ALK (stably expressing ALK kinase), mouse BaF3-TEL-EGFR (stably expressing EGFR kinase), mouse BaF3-TEL-EGFR-T790M (stably expressing EGFR T790M mutant kinase), mouse BaF3-FL-EGFR-Del19 (stably expressing EGFR delE746_A750 mutant kinase), mouse BaF3-TEL-EGFR-L858R (stably expressing EGFR L858R mutant kinase), mouse BaF3-FL-EGFR-T790M-L858R (stably expressing EGFR T790M/L858R mutant kinase), mouse BaF3-TEL-INSR (stably expressing INSR protein), mouse BaF3-TEL-IGF1R (stably expressing IGF1R Protein), mouse BaF3-EML4-ALK (stably expressing EML4-ALK Protein), mouse BaF3-TEL-JAK3 (stably expressing JAK3 kinase protein), mouse BaF3-TEL-CSF1R (stably expressing CSF1R protein), and mouse BaF3-TEL-ALK-F1196M (stably expressing ALK F1196M mutant kinase) were also used in this example.” for “(US).”
as §4

Compound | GI50 [1] [nM] | GI50 [2] [nM] | GI50 [3] [nM] | GI50 [4] [nM] | GI50 [5] [nM] | GI50 [6] [nM] | GI50 [7] [nM] | GI50 [8] [nM] | GI50 [9] [nM] | GI50 [10] [nM] | GI50 [11] [nM] | GI50 [12] [nM] | GI50 [13] [nM] | GI50 [14] [nM] | GI50 [15] [nM]
C=CC(=O)Nc1cc(Nc2ncc(F)c(Nc3ccccc3S(=O)(=O)C(C)C)n2)c(OC)cc1N1CCN(CC)CC1 [Compound 82, N-(2-(4-ethylpiperazin-1-yl)-5-(5-fluoro-4-(2-(isopropylsulfonyl)phenylamino)pyrimidin-2-ylamino)-4-methoxyphenyl)acrylamide] | 48 | 14 | 2 | 3000 | 1 | 1 | 7 | 6 |  |  |  |  |  |  | 
C=CC(=O)Nc1cc(Nc2ncc(Cl)c(Nc3ccccc3C(=O)NC)n2)c(OC)cc1N1CCN(C(C)=O)CC1 [Compound 68, 2-(2-(4-(4-ethanoylpiperazin-1-yl)-5-acrylamido-2-methoxyphenylamino)-5-chloropyrimidin-4-ylamino)-N-methylbenzamide] | 250 | 97 | 12 | 5700 | 120 |  | 14 |  | 1700 | 83 | 250 | 41 | 160 | 270 | 
C=CC(=O)Nc1cc(Nc2ncc(Br)c(Nc3ccccc3S(=O)(=O)C(C)C)n2)c(OC)cc1N1CCN(CC)CC1 [Compound 83, N-(5-(5-bromo-4-(2-(isopropylsulfonyl)phenylamino)pyrimidin-2-ylamino)-2-(4-ethylpiperazin-1-yl)-4-methoxyphenyl)acrylamide] | < 0.3 | 58 | 2 | 380 | 1 | < 0.3 | < 0.3 | < 0.3 |  |  |  |  |  |  | 
C=CC(=O)Nc1cc(Nc2ncc(Cl)c(Nc3ccccc3C(=O)NC)n2)c(OC)cc1N1CCN(C(C)C)CC1 [Compound 69, 2-(2-(5-acrylamido-4-(4-isopropylpiperazin-1-yl)-2-methoxyphenylamino)-5-chloropyrimidin-4-ylamino)-N-methylbenzamide] | 79 | 15 | 4.5 | 1100 |  |  | 49 |  |  | 62 |  |  | 1.4 | 37 | 100
C=CC(=O)Nc1cc(Nc2ncc(Cl)c(Nc3ccccc3C(=O)NC)n2)c(OC)cc1N(C)CCN(C)C [Compound 71, 2-(2-(5-acrylamido-4-((2-(dimethylamino)ethyl)(methyl)amino)-2-methoxyphenylamino)-5-chloropyrimidin-4-ylamino)-N-methylbenzamide] | 12 | 2 | 4.3 | 940 |  |  | 8.4 |  |  | 16 |  |  | 12 | 9 | 150
